Data published in publication PMC6720883, “In Vitro Inhibitory Effects of APINACA on Human Major Cytochrome P450, UDP-Glucuronosyltransferase Enzymes, and Drug Transporters” (Molecules, 2019).
Read-outs that look alike come from different tables or passages of the source.

Key:
UGT1A6 = UGT1A6 (Homo sapiens, UniProt P19224); test: Inhibition of UGT1A6-catalyzed N-acetylserotonin glucuronidation in human liver microsomes
Method: (§1) The inhibitory effect of APINACA and typical UGT inhibitors on UGT1A1, UGT1A3, UGT1A4, UGT1A6, UGT1A9, and UGT2B7 were evaluated following our previous method by LC–MS/MS after incubation of ultrapooled human liver microsomes with a cocktail of UGT substrates. […] The reactions were initiated by adding UDPGA, and the incubation continued for 60 min at 37 °C in a shaking water bath. The reactions were terminated by adding 50 μL of ice-cold acetonitrile containing internal standards (propofol glucuronide for chenodeoxycholic acid 24-acyl-β-glucuronide and mycophenolic acid glucuronide; and meloxicam for SN-38 glucuronide, trifluoperazine glucuronide, N-acetylserotonin β-D-glucuronide, and naloxone 3-β-D-glucuronide). The incubation mixtures were centrifuged at 13,000× g for 8 min at 4 °C. Next, 50 μL of each supernatant of A and B set was mixed, and aliquots (5 μL) were analyzed by LC–MS/MS. All assays were performed in triplicate, and the average values were used in calculations.
(§2) To measure the time-dependent inhibition, human liver microsomes were preincubated with the various concentrations of APINACA (final concentrations of 0.1–100 μM) and UDPGA for 30 min at 37 °C. Next, the reaction mixtures were incubated with UGT probe substrate cocktail sets for 60 min at 37 °C. The control reaction was performed by adding methanol instead of the test compounds.
(§3) 1.1 (Systat Software, Inc.).

OATP1B1 = molecular target: T1, OATP1B1 (Homo sapiens, UniProt Q9Y6L6); test: Uptake of [3-H]estrone-3-sulfate in HEK293-OATP1B1 cells; type: in vitro ADME
T1 construct: host or cells: HEK293 (transient overexpression)
T1 sequence (Q9Y6L6 1-691): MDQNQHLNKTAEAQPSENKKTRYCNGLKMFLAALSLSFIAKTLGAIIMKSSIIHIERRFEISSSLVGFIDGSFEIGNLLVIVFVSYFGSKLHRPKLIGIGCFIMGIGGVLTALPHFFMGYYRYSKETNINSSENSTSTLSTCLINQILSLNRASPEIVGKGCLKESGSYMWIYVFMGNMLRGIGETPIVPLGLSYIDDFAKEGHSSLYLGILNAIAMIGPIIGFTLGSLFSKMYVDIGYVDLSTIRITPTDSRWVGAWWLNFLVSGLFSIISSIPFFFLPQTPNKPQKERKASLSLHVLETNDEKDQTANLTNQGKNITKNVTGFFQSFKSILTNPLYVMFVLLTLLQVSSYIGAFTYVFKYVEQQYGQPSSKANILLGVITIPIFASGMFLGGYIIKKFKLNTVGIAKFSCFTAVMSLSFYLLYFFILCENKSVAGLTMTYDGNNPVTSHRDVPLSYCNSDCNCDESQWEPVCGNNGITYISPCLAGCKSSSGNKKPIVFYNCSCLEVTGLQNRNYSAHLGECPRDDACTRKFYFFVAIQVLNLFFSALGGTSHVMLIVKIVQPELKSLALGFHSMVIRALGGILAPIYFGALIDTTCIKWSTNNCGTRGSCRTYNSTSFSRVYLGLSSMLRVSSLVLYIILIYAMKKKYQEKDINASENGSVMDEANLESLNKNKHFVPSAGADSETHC
Method: (§4) To examine the effects of APINACA and typical inhibitors on transporter activity, the uptake of a probe substrate into HEK293 cells overexpressing the respective solute carrier transporters was measured in the presence of APINACA (final concentrations of 0–250 μM) or typical inhibitors for 5 min. The concentrations and probe substrates were selected as follows: 0.1 μM [3-H]MPP^+ (for OCT1 and OCT2), 0.1 μM [3-H]PAH (for OAT1), 0.1 μM [3-H]ES (for OAT3 and OATP1B1), and 0.1 μM [3-H]EG (for OATP1B3).
(§5) 12.5 (Systat Software, Inc.; San Jose, CA, USA). […] 1.1 (Systat Software, Inc.).

UGT1A4 = UGT1A4 (Homo sapiens, UniProt P22310); test: Inhibition of UGT1A4-catalyzed trifluoperazine N-glucuronidation in human liver microsomes
Method: as §1, §2, §3

UGT1A1 = molecular target: T2, UGT1A1 (Homo sapiens, UniProt P22309); test: biochemical; type: in vitro ADME
T2 construct: […]; tissue Corning Life Sciences
T2 sequence (P22309 26-533): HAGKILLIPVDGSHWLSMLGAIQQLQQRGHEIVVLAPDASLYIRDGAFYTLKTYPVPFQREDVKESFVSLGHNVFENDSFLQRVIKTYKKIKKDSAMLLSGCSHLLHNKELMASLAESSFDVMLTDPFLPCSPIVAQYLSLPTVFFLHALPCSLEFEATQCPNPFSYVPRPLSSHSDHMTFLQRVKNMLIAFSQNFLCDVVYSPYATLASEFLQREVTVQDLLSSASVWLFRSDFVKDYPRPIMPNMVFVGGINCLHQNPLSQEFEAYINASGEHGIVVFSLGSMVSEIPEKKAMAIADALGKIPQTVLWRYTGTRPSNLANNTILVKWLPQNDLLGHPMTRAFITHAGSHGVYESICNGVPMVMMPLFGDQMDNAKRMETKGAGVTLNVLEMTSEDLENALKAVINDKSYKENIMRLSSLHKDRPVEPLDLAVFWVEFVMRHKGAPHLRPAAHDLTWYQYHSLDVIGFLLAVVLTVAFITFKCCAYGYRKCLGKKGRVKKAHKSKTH
Description: as §5

OCT1 = molecular target: T3, OCT1 (Homo sapiens, UniProt O15245); test: Uptake of [3-H]methyl-4-phenylpyridinium in HEK293-OCT1 cells; type: in vitro ADME
T3 construct: host or cells: HEK293 (transient overexpression)
T3 sequence (O15245 1-554): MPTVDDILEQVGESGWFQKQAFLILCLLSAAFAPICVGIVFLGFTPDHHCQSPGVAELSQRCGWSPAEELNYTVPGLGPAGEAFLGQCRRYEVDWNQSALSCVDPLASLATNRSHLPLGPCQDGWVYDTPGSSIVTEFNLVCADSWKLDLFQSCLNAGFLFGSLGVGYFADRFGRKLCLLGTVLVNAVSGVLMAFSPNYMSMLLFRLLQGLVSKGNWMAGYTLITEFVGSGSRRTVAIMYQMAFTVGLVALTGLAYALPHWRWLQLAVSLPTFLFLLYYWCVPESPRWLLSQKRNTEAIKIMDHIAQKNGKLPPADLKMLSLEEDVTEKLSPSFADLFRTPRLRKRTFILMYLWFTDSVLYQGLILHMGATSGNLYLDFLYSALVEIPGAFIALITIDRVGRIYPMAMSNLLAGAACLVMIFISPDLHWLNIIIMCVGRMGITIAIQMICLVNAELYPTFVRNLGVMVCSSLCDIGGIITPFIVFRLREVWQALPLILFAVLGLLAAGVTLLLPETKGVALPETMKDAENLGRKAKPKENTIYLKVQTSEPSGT
Method: as §4, §5

Sequence of UGT1A6 (P19224 27-532): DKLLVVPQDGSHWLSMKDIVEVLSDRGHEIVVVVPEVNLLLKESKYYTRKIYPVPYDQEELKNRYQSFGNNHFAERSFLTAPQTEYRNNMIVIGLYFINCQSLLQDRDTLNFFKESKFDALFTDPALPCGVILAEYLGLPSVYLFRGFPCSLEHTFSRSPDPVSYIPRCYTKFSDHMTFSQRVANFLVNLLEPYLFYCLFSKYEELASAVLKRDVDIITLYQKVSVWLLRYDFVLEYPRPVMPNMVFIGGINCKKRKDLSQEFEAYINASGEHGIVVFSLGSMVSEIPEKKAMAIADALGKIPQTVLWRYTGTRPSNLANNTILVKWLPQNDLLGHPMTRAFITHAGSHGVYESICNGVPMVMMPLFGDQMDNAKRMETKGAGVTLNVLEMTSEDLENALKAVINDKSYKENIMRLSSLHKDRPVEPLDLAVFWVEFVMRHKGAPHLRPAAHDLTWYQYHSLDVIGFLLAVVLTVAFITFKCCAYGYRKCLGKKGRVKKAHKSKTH
Sequence of UGT1A4 (P22310 29-534): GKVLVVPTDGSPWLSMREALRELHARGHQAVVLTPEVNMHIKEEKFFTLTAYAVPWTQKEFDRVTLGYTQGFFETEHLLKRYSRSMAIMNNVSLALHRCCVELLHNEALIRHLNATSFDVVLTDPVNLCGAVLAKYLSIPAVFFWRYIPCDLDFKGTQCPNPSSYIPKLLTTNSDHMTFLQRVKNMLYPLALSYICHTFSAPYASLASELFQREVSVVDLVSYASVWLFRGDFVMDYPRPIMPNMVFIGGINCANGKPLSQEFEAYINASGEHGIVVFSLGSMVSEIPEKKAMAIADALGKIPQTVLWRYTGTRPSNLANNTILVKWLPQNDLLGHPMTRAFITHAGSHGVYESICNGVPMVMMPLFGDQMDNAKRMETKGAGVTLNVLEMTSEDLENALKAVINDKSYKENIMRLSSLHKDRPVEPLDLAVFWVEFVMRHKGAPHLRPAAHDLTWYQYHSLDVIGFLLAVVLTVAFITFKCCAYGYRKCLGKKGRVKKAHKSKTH

Compound: CCCCCn1nc(C(=O)NC23CC4CC(CC(C4)C2)C3)c2ccccc21 [APINACA, N-(1-adamantyl)-1-pentyl-1H-indazole-3-carboxamide]
- IC50 (UGT1A6): > 100 µM
- IC50 (UGT1A6; read-out: IC50 UGT1A6 N-acetylserotonin glucuronidation, with 30-min preincubation, pooled human liver microsomes, 30-min preincubation with UDPGA (○)): > 100 µM
- IC50 (OATP1B1): > 250 µM
- IC50 (UGT1A4): > 100 µM
- IC50 (UGT1A4; read-out: IC50 UGT1A4 trifluoperazine N-glucuronidation, with 30-min preincubation, pooled human liver microsomes, 30-min preincubation with UDPGA (○)): > 100 µM
- IC50 (UGT1A1): > 100 µM
- IC50 (UGT1A1; read-out: IC50 UGT1A1 SN-38 glucuronidation, with 30-min preincubation, pooled human liver microsomes, 30-min preincubation with UDPGA (○)): > 100 µM
- IC50 (OCT1): > 250 µM
